Measurements taken from patent publication US20130023553A1, “PEGYLATED OPIOIDS WITH LOW POTENTIAL FOR ABUSE AND SIDE EFFECTS” (Nektar Therapeutics, priority 2010, published 2013).
Where two headings read alike, the source gives them in different places.

Columns and labels:
[1] = 25 mg/kg intravenously, an hour following injection
Procedure: An hour following injection, the animals were sacrificed and plasma and the brain were collected and frozen immediately. Following tissue and plasma extractions, concentrations of the compounds in brain and plasma were measured using LC-MS/MS. The brain:plasma ratio was calculated as the ratio of measured concentrations in the brain and plasma.

[2] = test system: squirrel monkeys; assay: Monkey self-administration model of addictive potential
Source text: Dose-related effects of the test articles were examined, using two or more doses of each drug in 3-4 subjects in a double alternation schedule in which each unit dose (or vehicle) was used in two consecutive sessions before a change in unit dose.
Addictive potential of opioid compounds and opioid conjugates of the invention may be assessed through the use of squirrel monkey models as known in the art.
Under the double alternation schedule, each unit dose (or vehicle) was available for intravenous self-administration for two consecutive sessions before the unit dose was changed. In this way, it was possible to establish the function relating unit dose of intravenous drug to (i) number of injections per session, and/or (ii) the percentage of total responses that occur on the lever leading to self-administration (injection-lever responding, % ILR). Unit doses of drugs ranged from 0.01 to 3.2 mg/kg/injection.

[3] = test system: Male CD-1 mice; assay: Assessment of CNS side effects in mice (Straub tail, muscle rigidity, pinna reflex); settings: for Loss Pinna, number of animals responding (N=2) / Muscle Rigidity, number of animals responding (N=2) / Straub Tail Effect, number of animals responding (N=2): oral
Source text: The objective of this study was to provide an approximation of the side effect profile of various oligomeric conjugates for comparison to the parent compounds by measuring various gross behavioral and physiological signs following administration of compound.
Additional evaluations included muscle rigidity and pinna reflex.
Male CD-1 mice from Charles River Laboratories, Raleigh, N.C., weighing from 16-18 grams were maintained on a regular light/dark cycle (lights on 0600-1800) with ad libitum food and water for 1 week before commencement of testing. N=2 per treatment condition, i.e., separate mice for each dose of each test article, injection was performed via a 25-gauge ⅝-inch needle on a 1-mL tuberculin syringe for the s.c. route and a 22-gauge stainless steel mouse feeding tube for the p.o. route (Becton, Dickinson & Co., Franklin Lakes, N.J.). Each treatment condition was divided about evenly between two observers. […] Test article was administered (s.c. or p.o., and the mouse was placed immediately in the observation chamber). One-half, 1, 2, and 3 hours later, the animal was observed undisturbed for gross signs such as locomotor ataxia, tremor, hyperactivity, hypoactivity, convulsions, hindlimb splay, and Straub tail, and then removed and assessed for muscle tone (normal, rigid, flaccid), pinna reflex (presence or absence), righting reflex (intact or lost), and placing (whether or not the forepaws are extended when the mouse is placed near a surface).
Each of the tables show the number of animals responding at each dose, where N=2. […] A bolded value indicates the lowest dose at which a response was detected.

[4] = test system: mice; assay: Oral dose giving maximal analgesia; format: in vivo
[5] = test system: CD-1 male mice; assay: Phenylquinone writhing analgesic assay; format: in vivo; settings: Mus musculus; mPEGn-O-HydroxyCodone series
Procedure: The assay utilized CD-1 male mice (5-8 mice per group), each mouse being approximately 0.020-0.030 kg on the study day. Mice were treated according to standard protocols. Mice were given a single “pretreatment” dose of a compound lacking covalent attachment of a water-soluble, non-peptidic oligomer (i.e., non-PEG oligomer-modified parent molecule), a corresponding version comprising the compound covalently attached to a water-soluble, non-peptidic oligomer (i.e., the conjugate), or control solution (IV, SC, IP or orally) thirty minutes prior to the administration of the phenylquinone (PQ) solution. Each animal was given an IP injection of an irritant (phenylquinone, PQ) that induces “writhing” which may include: contractions of the abdomen, twisting and turning of the trunk, arching of the back, and the extension of the hindlimbs. Each animal was given an IP injection of PQ (1 mg/kg PQ, 0.1 mL/10 g bodyweight). After the injection, the animals were returned to their observation enclosure and their behavior was observed. Contractions were counted between 35 and 45 minutes after the ‘pretreatment”. The animals were used once. Each tested article was dosed at a range between 0.1 and 100 mg/kg (n=5-10 animals/dose).

[6] = Pharmacokinetics following intravenous (IV) dosing; format: in vivo, Sprague-Dawley rats; set-up: Cmax: unit: ng/mL; settings: hydroxycodone series, 1 mg/kg IV, Mean ± SD
Source text: (§1) There were 3 rats/group. All animals were food fasted overnight. […] The predose sample was collected from the JVC.
(§2) Following the last collection point, the animals were euthanized.

[7] = Pharmacokinetics following oral (PO) dosing; format: in vivo, Sprague-Dawley rats; set-up: Cmax: unit: ng/mL; settings: for Tmax: median value; for bioavailability: po, 5 mg/kg; for AUC(0-inf) / half-life: * n = 2; for half-life: read-out: T1/2(z)
Source text: as §1, §2

[8] = biological target: T1, human mu opioid receptor (Homo sapiens, UniProt P35372); assay: biochemical; format: binding
T1 construct: expressed in transfected cells; host or cells: CHO cells
Procedure: Radioligand displacement was measured using scintillation proximity assays (SPA).
Briefly, serial dilutions of the test compounds were placed in a 96-well plate to which were added SPA beads, membrane and radioligand. The assay conditions for each opioid receptor subtype are described in Table 10 below. The plates were incubated for 8 hours-overnight at room temperature, spun at 1000 rpm to pellet the SPA beads, and radioactivity was measured using the TopCount® microplate Scintillation counter. Specific binding at each concentration of test compound was calculated by subtracting the non-specific binding measured in the presence of excess cold ligand. IC50 values were obtained by non-linear regression of specific binding versus concentration curves and Ki values were calculated using Kd values that were experimentally pre-determined for each lot of membrane preparations.

[9] = biological target: T1, human mu opioid receptor; assay: cell-based; settings: for Emax: read-out: % max effect, mu opioid receptor
Procedure: Studies were conducted in CHO cells heterologously expressing the cloned human mu, kappa or delta opioid receptors. cAMP was measured using a cAMP HiRange homogenous time-resolved fluorescence assay (HTRF Assay), that is based on a competitive immunoassay principle (Cisbio, Cat.#62AM6PEC).
Briefly, suspensions of cells expressing either the mu, kappa or delta opioid receptors were prepared in buffer containing 0.5 mM isobutyl-methyl xanthine (IBMX). […] EC50 values were calculated for each compound from a sigmoidal dose-response plot of concentrations versus maximum response. To determine if the compounds behaved as full or partial agonists in the system, the maximal response at the highest tested concentrations of compounds were compared to that produced by a known full agonist.

[10] = hydroxycodone series, 5.0 mg/kg oral, Mean ± SD
[11] = male, Sprague-Dawley, rat, plasma
[12] = male, Sprague-Dawley, rat, plasma, hydroxycodone series, 5.0 mg/kg oral, Mean ± SD
[13] = male, Sprague-Dawley, rat, plasma, hydroxycodone series, 5.0 mg/kg oral, Mean ± SD, read-out: Cmax
[14] = male, Sprague-Dawley, rat, plasma, hydroxycodone series, 5.0 mg/kg oral, read-out: Tmax (converted)

T1 sequence (P35372 whole entry): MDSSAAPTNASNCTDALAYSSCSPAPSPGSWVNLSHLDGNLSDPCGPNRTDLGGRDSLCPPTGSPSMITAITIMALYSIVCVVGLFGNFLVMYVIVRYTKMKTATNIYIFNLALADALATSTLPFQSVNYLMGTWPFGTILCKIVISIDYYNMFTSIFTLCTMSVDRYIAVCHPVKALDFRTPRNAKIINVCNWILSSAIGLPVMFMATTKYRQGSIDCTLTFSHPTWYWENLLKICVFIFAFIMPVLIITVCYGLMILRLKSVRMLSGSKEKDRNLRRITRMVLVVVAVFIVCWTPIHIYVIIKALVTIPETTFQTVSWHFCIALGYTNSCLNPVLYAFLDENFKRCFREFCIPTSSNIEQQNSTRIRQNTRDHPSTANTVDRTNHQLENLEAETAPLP

In the case of `COCCOCCOCCO[C@H]1CC[C@@]2(O)[C@H]3Cc4ccc(O)c5c4[C@@]2(CCN3CC2CCC2)[C@H]1O5` [6-O-mPEG3-Nalbuphine], the “Brain:Plasma Ratios” value [1] is reported as 0.23.

For `CN1CC[C@]23c4c5ccc(O)c4O[C@H]2[C@@H](O)C=C[C@H]3[C@H]1C5` [Morphine, morphine, reference compound], the “injection lever responses (% ILR)” value ([2]; 0.03 mg/kg/injection) was 100%, the “subjects showing addictive behavior” value ([2]; 0.1 mg/kg/injection) was 100% and the “mice showing the straub tail response” value ([3]; oral doses up to 100 mg/kg) was 100%. The “Loss Pinna, number of animals responding (N=2)” value (“Loss Pinna, number” below) ([3]; 1 mg/kg) was 0, the “Muscle Rigidity, number of animals responding (N=2)” value (shortened to “Muscle Rigidity, number”) ([3]; 1 mg/kg) was 0 and the “Straub Tail Effect, number of animals responding (N=2)” value (from here on “Straub Tail Effect, number”) ([3]; 1 mg/kg) was 0. For the same compound, the “Loss Pinna, number” value ([3]; 3 mg/kg) was 2, the “Muscle Rigidity, number” value ([3]; 3 mg/kg) was 0 and the “Straub Tail Effect, number” value ([3]; 3 mg/kg) was 2. The “Loss Pinna, number” value ([3]; 10 mg/kg) was 1, the “Muscle Rigidity, number” value ([3]; 10 mg/kg) was 1 and the “Straub Tail Effect, number” value ([3]; 10 mg/kg) was 2. The “Loss Pinna, number” value ([3]; 30 mg/kg) was 2, the “Muscle Rigidity, number” value ([3]; 30 mg/kg) was 2 and the “Straub Tail Effect, number” value ([3]; 30 mg/kg) was 2. The “Loss Pinna, number” value ([3]; 100 mg/kg) was 2, the “Muscle Rigidity, number” value ([3]; 100 mg/kg) was 2 and the “Straub Tail Effect, number” value ([3]; 100 mg/kg) was 1. For the same compound, the “Loss Pinna, number” value ([3]; 300 mg/kg) was 2, the “Muscle Rigidity, number” value ([3]; 300 mg/kg) was 2 and the “Straub Tail Effect, number” value ([3]; 300 mg/kg) was 1. The “oral dose at which maximal analgesia was obtained” value [4] was 20 mg/kg.

With `COc1ccc2c3c1O[C@H]1C(=O)CC[C@@]4(O)[C@@H](C2)N(C)CC[C@]314` [Oxycodone, oxycodone, reference compound] the “subjects showing addictive behavior” value ([2]; 0.01 mg/kg/injection) was 25%, the “injection lever responses (% ILR)” value ([2]; 0.03 mg/kg/injection) was 100% and the “subjects showing addictive behavior” value ([2]; 0.03 mg/kg/injection) was 100%. The “injection lever responses (% ILR)” value ([2]; 0.1 mg/kg/injection) was 100%, the ED50 [5] was 0.619 mg/kg and the AUCall [6] was 12800 ± 1090 ng·min/mL. For the same compound, the AUCinf [6] was 13000 ± 1070 ng·min/mL, the CL [6] was 4.63 ± 0.376 L/h/kg and the Cmax [6] was 0.495 ± 0.056 µg/mL. For the same compound, the MRTlast [6] was 37.0 ± 1.28 min, the “T1/2(z)” value [6] was 47.0 ± 3.99 min and the AUCall [7, 10] was 4520 ± 1660 ng·min/mL. The Cmax [7, 10] was 0.0255 ± 0.00186 µg/mL, the MRTlast [7, 10] was 179 ± 17.4 min and the Tmax ([7]; hydroxycodone series, 5.0 mg/kg oral) was 15.0 min. For the same compound, the “oral dose at which maximal analgesia was obtained” value [4] was 14 mg/kg.

In the case of `COCCOC1CCC2(O)C3Cc4ccc(OC)c5c4C2(CCN3C)C1O5` (stereo not drawn) [α-6-mPEG1-O-hydroxycodone, α-6-mPEG1-O-oxycodone], the ED50 [5] is reported as 6.06 mg/kg, the bioavailability [7, 11] is reported as 2.1% and the AUC [7, 12] is reported as 0.0175 µg·h/mL. The MRT last [7, 12] was 66.8 min, the AUC(0-inf) [7, 12] was 0.0192 µg·h/mL and the half-life [7, 12] was 57.7 min. It also gave a Cmax [7, 13] of 0.0143 ± 0.00643 µg/mL, a Tmax [7, 14] of 15 min and a Ki ([8]; CHO-K1 membranes, [3H]DAMGO 6 nM, read-out: Ki, Mu opioid receptor) of 0.654 µM. It also gave an Emax ([9]; maximal response at the highest tested concentration) of 102% and an EC50 ([9]; read-out: EC50, mu opioid receptor) of 3.84 µM.

Compound `COCCOCCOCCOCCOC1CCC2(O)C3Cc4ccc(OC)c5c4C2(CCN3C)C1O5` (stereo not drawn) [α-6-mPEG4-O-hydroxycodone, α-6-mPEG4-O-oxycodone] has an ED50 [5] of 17.3 mg/kg, an AUC [6, 11] of 0.192 µg·h/mL and an AUC(0-inf) [6, 11] of 0.193 µg·h/mL. For the same compound, the MRT last [6, 11] was 35.6 min, the clearance [6, 11] was 5.19 ± 0.382 L/h/kg and the Cmax ([6]; male, Sprague-Dawley, rat, plasma, read-out: Cmax) was 0.537 ± 0.031 µg/mL. It also gave a half-life ([6]; male, Sprague-Dawley, rat, plasma, read-out: T1/2(z)) of 43.6 ± 3.27 min, a Vd ([6]; male, Sprague-Dawley, rat, plasma, read-out: Vss) of 3.34 ± 0.113 L/kg and a bioavailability [7, 11] of 11%. The AUC [7, 12] was 0.106 µg·h/mL, the MRT last [7, 12] was 96.6 min and the AUC(0-inf) [7, 12] was 0.088 µg·h/mL. It also gave a half-life [7, 12] of 70.3 min, a Cmax [7, 13] of 0.0558 ± 0.00469 µg/mL and a Tmax [7, 14] of 15 min. The Ki [8] was 0.893 µM, the EC50 [9] was 3.72 µM and the Emax [9] was 109%.
